Laboratory results as given in paper PMC10248798, “Arabidopsis nicotianamine synthases comprise a common core-NAS domain fused to a variable autoinhibitory C terminus” (The Journal of Biological Chemistry, 2023).

Columns and labels:
Type in all cases: biochemical
MetK = biological target: T1, MetK (Escherichia coli, UniProt P0A817); experiment: one-pot coupled synthesis of nicotianamine with MtnN and AtNAS1; settings: coupled to AtNAS1 and MtnN
T1 construct: full length, C-terminal His6 tag (pET-21b), Ni-NTA purified from E. coli
T1 sequence (P0A817 2-384): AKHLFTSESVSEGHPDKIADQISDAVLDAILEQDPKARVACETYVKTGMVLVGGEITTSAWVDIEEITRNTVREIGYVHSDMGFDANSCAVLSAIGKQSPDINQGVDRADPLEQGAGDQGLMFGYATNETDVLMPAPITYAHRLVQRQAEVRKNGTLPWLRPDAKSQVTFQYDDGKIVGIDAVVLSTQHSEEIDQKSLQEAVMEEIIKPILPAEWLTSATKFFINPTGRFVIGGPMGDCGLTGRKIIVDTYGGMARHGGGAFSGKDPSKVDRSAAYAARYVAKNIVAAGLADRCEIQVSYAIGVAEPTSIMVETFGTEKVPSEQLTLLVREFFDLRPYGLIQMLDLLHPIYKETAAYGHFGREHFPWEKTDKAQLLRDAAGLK

MtnN = biological target: T2, MtnN (Escherichia coli, UniProt P0AF12); experiment: TLC; settings: 2.5 mM MTA, 50 mM Tris/HCl pH 8.7, 30 °C
T2 construct: full length, C-terminal His6 tag (pET-21b), Ni-NTA purified from E. coli

AtNAS4 ΔC47 = biological target: T3, AtNAS4 ΔC47 (Arabidopsis thaliana, UniProt Q9C7X5); experiment: coupled spectrophotometric assay (MtnN/AdeD, A265); settings: 0.125 mM SAM, 50 mM Tris-HCl pH 8.7, 37 °C
T3 construct: gene NAS4; core-NAS domain, 47 C-terminal residues removed, C-terminal His6 tag (pET-21b), E. coli
T3 sequence (Q9C7X5 1-277): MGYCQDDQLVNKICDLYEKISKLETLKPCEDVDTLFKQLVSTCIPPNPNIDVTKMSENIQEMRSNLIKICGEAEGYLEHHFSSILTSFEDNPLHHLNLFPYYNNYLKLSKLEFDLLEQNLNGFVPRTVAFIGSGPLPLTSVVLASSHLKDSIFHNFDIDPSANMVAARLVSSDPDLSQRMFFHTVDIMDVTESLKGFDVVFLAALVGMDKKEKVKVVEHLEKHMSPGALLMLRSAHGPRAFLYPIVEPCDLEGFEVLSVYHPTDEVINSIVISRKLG

AtNAS3 ΔC42 = biological target: T4, AtNAS3 ΔC42 (Arabidopsis thaliana, UniProt O80483); experiment: coupled spectrophotometric assay (MtnN/AdeD, A265); settings: 0.125 mM SAM, 50 mM Tris-HCl pH 8.7, 37 °C
T4 construct: gene NAS3; core-NAS domain, 42 C-terminal residues removed, C-terminal His6 tag (pET-21b, NheI/NotI), E. coli
T4 sequence (O80483 1-278): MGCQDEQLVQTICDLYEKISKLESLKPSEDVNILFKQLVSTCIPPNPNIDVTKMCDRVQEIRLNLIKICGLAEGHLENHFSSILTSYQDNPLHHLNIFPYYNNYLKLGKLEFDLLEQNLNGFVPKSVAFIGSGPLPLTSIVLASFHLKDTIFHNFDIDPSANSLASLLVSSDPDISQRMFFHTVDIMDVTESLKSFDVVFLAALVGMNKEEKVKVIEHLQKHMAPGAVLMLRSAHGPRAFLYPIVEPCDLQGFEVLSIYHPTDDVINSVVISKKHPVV

AdeD = biological target: T5, AdeD (Escherichia coli, UniProt P31441); experiment: TLC; settings: 3 mM adenine, 50 mM Tris/HCl pH 8.7, 30 °C
T5 construct: gene ade; full length, C-terminal His6 tag (pET-21b), Ni-NTA purified from E. coli
T5 sequence (P31441 whole entry): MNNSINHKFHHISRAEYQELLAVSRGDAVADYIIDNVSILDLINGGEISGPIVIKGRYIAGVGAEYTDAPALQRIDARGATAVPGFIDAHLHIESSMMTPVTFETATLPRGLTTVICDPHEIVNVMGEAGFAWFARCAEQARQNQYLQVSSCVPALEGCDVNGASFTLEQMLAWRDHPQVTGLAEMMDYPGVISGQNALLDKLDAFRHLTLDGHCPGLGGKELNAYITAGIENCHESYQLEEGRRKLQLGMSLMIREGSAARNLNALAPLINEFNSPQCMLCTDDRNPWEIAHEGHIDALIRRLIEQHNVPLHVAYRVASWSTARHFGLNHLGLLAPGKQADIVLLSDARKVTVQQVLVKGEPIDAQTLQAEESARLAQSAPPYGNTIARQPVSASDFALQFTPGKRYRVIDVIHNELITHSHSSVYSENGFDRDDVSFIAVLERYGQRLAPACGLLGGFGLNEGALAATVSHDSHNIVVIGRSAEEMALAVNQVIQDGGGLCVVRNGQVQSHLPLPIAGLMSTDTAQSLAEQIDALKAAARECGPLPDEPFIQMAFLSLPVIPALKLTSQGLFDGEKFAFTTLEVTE

T2 sequence (P0AF12 whole entry): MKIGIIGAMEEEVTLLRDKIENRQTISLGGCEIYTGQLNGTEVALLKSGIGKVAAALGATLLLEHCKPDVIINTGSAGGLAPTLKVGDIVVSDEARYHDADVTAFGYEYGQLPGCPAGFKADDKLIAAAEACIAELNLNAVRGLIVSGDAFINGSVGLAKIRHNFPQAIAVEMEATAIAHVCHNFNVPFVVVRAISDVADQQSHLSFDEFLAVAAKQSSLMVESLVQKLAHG

## Nc1ncnc2c1ncn2[C@@H]1O[C@H](COP(=O)(O)OP(=O)(O)OP(=O)(O)O)[C@@H](O)[C@H]1O [ATP]
MetK; co-substrate L-methionine
  one-pot coupled synthesis of nicotianamine with MtnN and AtNAS1: we combined MetK with MtnN and AtNAS1 for the one-pot synthesis of NA from ATP

## CSC[C@H]1O[C@@H](n2cnc3c(N)ncnc32)[C@H](O)[C@@H]1O [MTA]
MtnN
  TLC: MtnN- and AdeD, were active in NAS reaction buffer when assayed individually with their respective substrates

## CSCC[C@H](N)C(=O)O [L-methionine]
MetK; co-substrate ATP
  one-pot coupled synthesis of nicotianamine with MtnN and AtNAS1: we combined MetK with MtnN and AtNAS1 for the one-pot synthesis of NA from ATP

## C[S+](CC[C@H](N)C(=O)O)C[C@H]1O[C@@H](n2cnc3c(N)ncnc32)[C@H](O)[C@@H]1O (stereo partly drawn) [SAM]
AtNAS4 ΔC47
  coupled spectrophotometric assay (MtnN/AdeD, A265): The truncated variants of AtNAS3 and AtNAS4 also showed strongly increased activities
AtNAS3 ΔC42
  coupled spectrophotometric assay (MtnN/AdeD, A265): The truncated variants of AtNAS3 and AtNAS4 also showed strongly increased activities

## Nc1ncnc2[nH]cnc12 [adenine]
AdeD
  TLC: MtnN- and AdeD, were active in NAS reaction buffer when assayed individually with their respective substrates
